Source: US20190046552A1, “COMPOSITIONS AND METHODS FOR THE TREATMENT OF HCV INFECTION” (priority 2015, published 2019)
Read-outs that look alike come from different tables or passages of the source.

Experiment: Part B (MAD): plasma PK of Formula (IIa) and its metabolites after once-daily oral Formula (IIa) for 7 days, fasted
Type: in vivo, human
Details: for Cmax / half-life / AUC(0-t) / Tmax / AUC(0-inf): human, in vivo
Procedure: Part B was a blinded, randomized, placebo-controlled MAD study consisting of four cohorts of eight subjects randomized 6:2 to receive Formula (IIa) or placebo. […] To control for the possible effect of the IL28b genotype, the number of subjects with CC alleles was capped at three per cohort.
The starting dose was determined by the SRC based on review of all safety and any available PK/PD data from Part A. All subjects were dosed in the fasted state with Formula (IIa) daily, from Day 1 until […]. All subjects had nothing by mouth other than water for at least 10 hours prior to daily dosing and for 4 hours thereafter. In Part B, all subjects were administered the study medication orally with approximately 240 mL of water at the same time every day (+/−10 minutes).
A subset of blood samples shown in Table 3 above was used for the PK evaluation of plasma trough concentrations (Table 4). In addition, blood sample assessment of antiviral response was collected according to the following sampling schedule for Part B (Table 4).
All plasma PK calculations were performed using actual time points calculated relative to the time of last drug administration.
PK analysis was conducted for all enrolled subjects that received any dose of Formula (IIa) with sufficient plasma sample data to assess PK parameters. […] Data analysis was performed using a validated version of WinNonlin® Enterprise (Version 5.2) software, and summary tables and figures were generated using a validated version of WinNonlin® Autopilot™ (Version 1.1.1) and other reporting tools, including SigmaPlot®.

In the case of `CO[C@H]1C(OP(=O)(OC[C@H]2O[C@@H](n3cnc4c(N)ncnc43)CC2O)SCOC(=O)OC(C)C)[C@@H](CO)O[C@H]1n1ccc(=O)[nH]c1=O` (stereo partly drawn) [Formula (IIa)], the Tmin (900 mg Formula (IIa) QD oral, fasted, Day 7, plasma, median (min, max)) is reported as 0.00 h, the Cmax (200 to 900 mg Formula (IIa), Days 1 and 7, read-out: Cmax range) is reported as 0.531 to 6.66 ng/mL and the half-life (Day 1, 400 mg and 900 mg QD doses, read-out: mean plasma t1/2 range) is reported as 0.963 to 1.05 h. It also gave an AUC(0-t) (Day 1, 200-900 mg Formula (IIa) QD, read-out: mean AUC0-24 range across dose levels) of 0.512 to 7.91 ng·h/mL, a Cmax (Day 1, 200-900 mg Formula (IIa) QD, read-out: mean Cmax range across dose levels) of 0.531 to 3.75 ng/mL and a Tmax (Day 1, 200-900 mg Formula (IIa) QD, read-out: median Tmax, range across dose levels) of 1 to 1.51 h. The half-life (Day 7, 400 mg and 900 mg QD doses, read-out: mean plasma t1/2 range) was 0.684 to 1.07 h, the AUC(0-t) (Day 7, 200-900 mg Formula (IIa) QD, read-out: mean AUC0-24 range across dose levels) was 0.77 to 13.7 ng·h/mL and the Cmax (Day 7, 200-900 mg Formula (IIa) QD, read-out: mean Cmax range across dose levels) was 0.885 to 6.66 ng/mL. It also gave a Tmax (Day 7, 200-900 mg Formula (IIa) QD, read-out: median Tmax, range across dose levels) of 1 to 1.28 h, a half-life (Days 1 and 7, across dose levels, read-out: terminal half-life (t1/2), range of means) of 0.684 to 1.07 h and an AUC(0-t) (po, 200 mg, 200 mg Formula (IIa) QD oral, fasted, Day 1, plasma, arithmetic mean (CV %), read-out: AUC0-24) of 0.512 ng·h/mL. It also gave an AUC(0-t) (po, 200 mg, 200 mg Formula (IIa) QD oral, fasted, Day 1, plasma, arithmetic mean (CV %), read-out: AUC0-t) of 0.393 ng·h/mL, a Cmax (po, 200 mg, 200 mg Formula (IIa) QD oral, fasted, Day 1, plasma, arithmetic mean (CV %), read-out: Cmax) of 0.531 ng/mL and a Tmax (po, 200 mg, 200 mg Formula (IIa) QD oral, fasted, Day 1, plasma, median (min, max), read-out: Tmax) of 1 h. It also gave an AUC(0-t) (po, 200 mg, 200 mg Formula (IIa) QD oral, fasted, Day 7, plasma, arithmetic mean (CV %), footnote: AUC0-24 = AUC0-t on Day 7, read-out: AUC0-24) of 0.77 ng·h/mL, an AUC(0-t) (po, 200 mg, 200 mg Formula (IIa) QD oral, fasted, Day 7, plasma, arithmetic mean (CV %), read-out: AUC0-t) of 1.41 ng·h/mL and a Cmax (po, 200 mg, 200 mg Formula (IIa) QD oral, fasted, Day 7, plasma, arithmetic mean (CV %), read-out: Cmax) of 0.885 ng/mL. For the same compound, the Tmax (po, 200 mg, 200 mg Formula (IIa) QD oral, fasted, Day 7, plasma, median (min, max), read-out: Tmax) was 1 h, the AUC(0-t) (po, 400 mg, 400 mg Formula (IIa) QD oral, fasted, Day 1, plasma, arithmetic mean (CV %), read-out: AUC0-24) was 7.91 ng·h/mL and the AUC(0-t) (po, 400 mg, 400 mg Formula (IIa) QD oral, fasted, Day 1, plasma, arithmetic mean (CV %), read-out: AUC0-t) was 3.27 ng·h/mL. For the same compound, the Cmax (po, 400 mg, 400 mg Formula (IIa) QD oral, fasted, Day 1, plasma, arithmetic mean (CV %), read-out: Cmax) was 2.13 ng/mL, the half-life (po, 400 mg, 400 mg Formula (IIa) QD oral, fasted, Day 1, plasma, arithmetic mean (CV %), read-out: t1/2 (converted)) was 1.05 h and the Tmax (po, 400 mg, 400 mg Formula (IIa) QD oral, fasted, Day 1, plasma, median (min, max), read-out: Tmax) was 1.51 h. For the same compound, the AUC(0-t) (po, 400 mg, 400 mg Formula (IIa) QD oral, fasted, Day 7, plasma, arithmetic mean (CV %), footnote: AUC0-24 = AUC0-t on Day 7, read-out: AUC0-24) was 2.71 ng·h/mL, the AUC(0-t) (po, 400 mg, 400 mg Formula (IIa) QD oral, fasted, Day 7, plasma, arithmetic mean (CV %), read-out: AUC0-t) was 3.1 ng·h/mL and the Cmax (po, 400 mg, 400 mg Formula (IIa) QD oral, fasted, Day 7, plasma, arithmetic mean (CV %), read-out: Cmax) was 2.52 ng/mL. It also gave a half-life (po, 400 mg, 400 mg Formula (IIa) QD oral, fasted, Day 7, plasma, arithmetic mean (CV %), read-out: t1/2 (converted)) of 0.684 h, a Tmax (po, 400 mg, 400 mg Formula (IIa) QD oral, fasted, Day 7, plasma, median (min, max), read-out: Tmax) of 1.28 h and an AUC(0-t) (po, 900 mg, 900 mg Formula (IIa) QD oral, fasted, Day 1, plasma, arithmetic mean (CV %), read-out: AUC0-24) of 4.58 ng·h/mL. It also gave an AUC(0-t) (po, 900 mg, 900 mg Formula (IIa) QD oral, fasted, Day 1, plasma, arithmetic mean (CV %), read-out: AUC0-t) of 5.31 ng·h/mL, a Cmax (po, 900 mg, 900 mg Formula (IIa) QD oral, fasted, Day 1, plasma, arithmetic mean (CV %), read-out: Cmax) of 3.75 ng/mL and a half-life (po, 900 mg, 900 mg Formula (IIa) QD oral, fasted, Day 1, plasma, arithmetic mean (CV %), read-out: t1/2 (converted)) of 0.963 h. The Tmax (po, 900 mg, 900 mg Formula (IIa) QD oral, fasted, Day 1, plasma, median (min, max), read-out: Tmax) was 1.04 h, the AUC(0-t) (po, 900 mg, 900 mg Formula (IIa) QD oral, fasted, Day 7, plasma, arithmetic mean (CV %), footnote: AUC0-24 = AUC0-t on Day 7, read-out: AUC0-24) was 13.7 ng·h/mL and the AUC(0-t) (po, 900 mg, 900 mg Formula (IIa) QD oral, fasted, Day 7, plasma, arithmetic mean (CV %), read-out: AUC0-t) was 9.39 ng·h/mL. It also gave a Cmax (po, 900 mg, 900 mg Formula (IIa) QD oral, fasted, Day 7, plasma, arithmetic mean (CV %), read-out: Cmax) of 6.66 ng/mL, a half-life (po, 900 mg, 900 mg Formula (IIa) QD oral, fasted, Day 7, plasma, arithmetic mean (CV %), read-out: t1/2 (converted)) of 1.07 h and a Tmax (po, 900 mg, 900 mg Formula (IIa) QD oral, fasted, Day 7, plasma, median (min, max), read-out: Tmax) of 1.25 h. For the same compound, the AUC(0-inf) (400 mg Formula (IIa) QD oral, fasted, Day 1, plasma, arithmetic mean (CV %)) was 8.04 ng·h/mL, the AUC(0-inf) (900 mg Formula (IIa) QD oral, fasted, Day 1, plasma, arithmetic mean (CV %)) was 7.25 ng·h/mL and the mean trough levels (multiple once daily oral Formula (IIa) QD for 7 days, fasted) was “BLQ”.
